Laboratory results as given in patent US20210255193A1, “LYSINE REACTIVE PROBES AND USES THEREOF” (The Scripps Research Institute, priority 2017, published 2021).

Legend:
Assay in all cases: competitive isoTOP-ABPP
Format in all cases: binding
[1] = target: T1, FH Fumarate hydratase, mitochondrial (Homo sapiens, UniProt P07954); settings: for isoTOP-ABPP ratio (R) at liganded lysine P07954_K311: sol, 231
T1 construct: isoTOP-ABPP experiments performed in cell lysates (in vitro); endogenous in cells; host or cells: MDA-MB-231 soluble lysate
T1 sequence (P07954 45-510): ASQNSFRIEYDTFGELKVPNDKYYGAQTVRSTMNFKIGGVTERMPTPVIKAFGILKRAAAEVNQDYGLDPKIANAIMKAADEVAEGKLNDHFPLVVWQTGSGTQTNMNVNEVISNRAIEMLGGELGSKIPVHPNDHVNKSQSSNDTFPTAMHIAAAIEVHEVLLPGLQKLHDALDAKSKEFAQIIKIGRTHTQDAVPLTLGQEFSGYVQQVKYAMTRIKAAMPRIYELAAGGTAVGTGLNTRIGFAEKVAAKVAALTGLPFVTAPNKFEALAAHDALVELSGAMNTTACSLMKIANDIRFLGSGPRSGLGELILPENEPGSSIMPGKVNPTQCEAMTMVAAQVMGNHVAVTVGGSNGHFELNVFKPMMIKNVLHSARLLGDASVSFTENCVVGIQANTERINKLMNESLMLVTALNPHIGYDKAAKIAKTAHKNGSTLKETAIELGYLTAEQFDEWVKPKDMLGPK
Summary of the method: (§1)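 Here, isoTOP-ABPP measures loss of STP-alkyne labeling at individual lysines after fragment exposure in lysate. Activated esters are dosed at 50 μM, guanidinylating agents at 100 μM; the probe follows at 0.1 mM for 1 h. R ≥4 marks a liganded lysine.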

[2] = target: T2, LDHB L-lactate dehydrogenase B chain (Homo sapiens, UniProt P07195); settings: 50 uM, in vitro; for isoTOP-ABPP ratio (R) at liganded lysine P07195_K244 / isoTOP-ABPP ratio (R) at liganded lysine P07195_K82: sol, 231
T2 construct: isoTOP-ABPP experiments performed in cell lysates (in vitro); endogenous in cells; host or cells: MDA-MB-231 soluble lysate
T2 sequence (P07195 whole entry): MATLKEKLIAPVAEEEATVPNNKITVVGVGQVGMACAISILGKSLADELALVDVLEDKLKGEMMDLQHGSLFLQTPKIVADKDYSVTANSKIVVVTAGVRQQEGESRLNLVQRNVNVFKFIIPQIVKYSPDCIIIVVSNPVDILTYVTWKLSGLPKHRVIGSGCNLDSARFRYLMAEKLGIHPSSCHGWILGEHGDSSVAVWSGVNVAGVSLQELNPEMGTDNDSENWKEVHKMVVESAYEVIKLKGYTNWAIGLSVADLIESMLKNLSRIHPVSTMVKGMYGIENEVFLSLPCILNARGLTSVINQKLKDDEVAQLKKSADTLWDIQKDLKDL
Summary of the method: as §1

[3] = target: T3, IMPDH1 Inosine-5-monophosphate dehydrogenase 1 (Homo sapiens, UniProt P20839); settings: for isoTOP-ABPP ratio (R) at liganded lysine P20839_K208 / isoTOP-ABPP reactivity ratio at lysine P20839_K208: 50 uM, in vitro; for isoTOP-ABPP ratio (R) at liganded lysine P20839_K208: sol, 231; for isoTOP-ABPP reactivity ratio at lysine P20839_K208: 231 sol
T3 construct: isoTOP-ABPP experiments performed in cell lysates (in vitro); endogenous in cells; host or cells: soluble proteome of human cancer cell lines (MDA-MB-231; Ramos and Jurkat also prepared)
T3 sequence (P20839 whole entry): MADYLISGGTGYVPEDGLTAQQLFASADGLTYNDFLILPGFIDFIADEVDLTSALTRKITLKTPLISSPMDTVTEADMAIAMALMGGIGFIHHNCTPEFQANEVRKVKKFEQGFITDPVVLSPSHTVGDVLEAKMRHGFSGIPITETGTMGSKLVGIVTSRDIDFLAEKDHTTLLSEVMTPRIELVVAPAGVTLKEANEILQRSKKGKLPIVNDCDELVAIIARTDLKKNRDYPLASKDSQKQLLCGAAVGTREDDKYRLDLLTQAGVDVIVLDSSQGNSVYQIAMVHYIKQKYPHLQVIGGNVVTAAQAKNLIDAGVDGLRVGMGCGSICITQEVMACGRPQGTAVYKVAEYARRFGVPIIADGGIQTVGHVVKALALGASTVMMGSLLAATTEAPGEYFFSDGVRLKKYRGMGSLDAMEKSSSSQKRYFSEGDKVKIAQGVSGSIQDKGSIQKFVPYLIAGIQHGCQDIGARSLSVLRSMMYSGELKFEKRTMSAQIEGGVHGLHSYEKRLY
Summary of the method: as §1

[4] = target: T4, MRPL12 39S ribosomal protein L12, mitochondrial (Homo sapiens, UniProt P52815); settings: for isoTOP-ABPP ratio (R) at liganded lysine P52815_K87: sol, 231
T4 construct: isoTOP-ABPP experiments performed in cell lysates (in vitro); endogenous in cells; host or cells: soluble proteome of human cancer cell lines (MDA-MB-231, Ramos, Jurkat)
Summary of the method: as §1

[5] = target: T5, GABARAPL2 Gamma-aminobutyric acid receptor-associated protei (Homo sapiens, UniProt P60520); settings: for isoTOP-ABPP ratio (R) at liganded lysine P60520_K46: sol, 231
T5 construct: isoTOP-ABPP experiments performed in cell lysates (in vitro); endogenous in cells; host or cells: soluble proteome of human cancer cell lines (MDA-MB-231, Ramos, Jurkat)
T5 sequence (P60520 1-116 limits assumed): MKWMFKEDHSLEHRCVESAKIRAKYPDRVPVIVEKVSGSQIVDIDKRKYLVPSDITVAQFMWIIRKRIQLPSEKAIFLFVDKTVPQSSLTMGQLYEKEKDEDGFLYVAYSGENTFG
Summary of the method: as §1

[6] = target: T6, DTYMK Thymidylate kinase (Homo sapiens, UniProt P23919); settings: 50 uM, in vitro; for isoTOP-ABPP ratio (R) at liganded lysine P23919_K118: sol, 231
T6 construct: isoTOP-ABPP experiments performed in cell lysates (in vitro); endogenous in cells; host or cells: soluble proteome of human cancer cell lines (MDA-MB-231; Ramos and Jurkat also prepared)
T6 sequence (P23919 1-212): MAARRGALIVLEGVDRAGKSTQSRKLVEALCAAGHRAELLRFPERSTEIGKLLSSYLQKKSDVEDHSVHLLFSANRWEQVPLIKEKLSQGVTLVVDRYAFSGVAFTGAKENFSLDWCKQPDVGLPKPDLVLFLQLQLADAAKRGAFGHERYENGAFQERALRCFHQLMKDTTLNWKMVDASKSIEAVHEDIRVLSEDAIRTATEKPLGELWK
Summary of the method: as §1

[7] = target: T7, LRRC20 Leucine-rich repeat-containing protein 20 (Homo sapiens, UniProt Q8TCA0); settings: for isoTOP-ABPP ratio (R) at liganded lysine Q8TCA0_K43: sol, 231
T7 construct: isoTOP-ABPP experiments performed in cell lysates (in vitro); endogenous in cells; host or cells: soluble proteome of human cancer cell lines (MDA-MB-231; Ramos and Jurkat also prepared)
T7 sequence (Q8TCA0 1-184): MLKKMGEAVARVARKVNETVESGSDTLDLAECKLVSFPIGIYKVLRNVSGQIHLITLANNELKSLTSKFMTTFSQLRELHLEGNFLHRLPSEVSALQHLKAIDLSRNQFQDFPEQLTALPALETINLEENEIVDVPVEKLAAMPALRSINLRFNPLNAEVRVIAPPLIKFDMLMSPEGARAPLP
Summary of the method: as §1

| Structure (SMILES) | isoTOP-ABPP ratio (R) at liganded lysine P07954_K311 ([1]; 50 uM, in vitro) | isoTOP-ABPP ratio (R) at liganded lysine P07195_K244 [2] | isoTOP-ABPP ratio (R) at liganded lysine P20839_K208 [3] | isoTOP-ABPP ratio (R) at liganded lysine P52815_K87 ([4]; 50 uM, in vitro) | isoTOP-ABPP ratio (R) at liganded lysine P60520_K46 ([5]; 50 uM, in vitro) | isoTOP-ABPP ratio (R) at liganded lysine P23919_K118 [6] | isoTOP-ABPP ratio (R) at liganded lysine P07195_K82 [2] | isoTOP-ABPP ratio (R) at liganded lysine Q8TCA0_K43 ([7]; 50 uM, in vitro) | other results |
| --- | --- | --- | --- | --- | --- | --- | --- | --- | --- |
| CC(C)(C)OC(=O)NCCCC(=O)Oc1ccc([N+](=O)[O-])cc1[N+](=O)[O-] [fragment 41, 2,4-Dinitrophenyl 4-((tert-butoxycarbonyl)amino)butanoate] | 1.0 | 20.0 | 1.2 | 4.1 | 1.0 | 0.8 | – | – | – |
| O=C(Oc1ccc([N+](=O)[O-])cc1[N+](=O)[O-])c1ccc(-c2ccccc2)cc1 [fragment 37, 2,4-Dinitrophenyl [1,1′-biphenyl]-4-carboxylate] | 1.2 | 0.8 | 1.4 | – | 0.8 | 0.9 | 0.8 | – | – |
| COc1cc(CCC(=O)Oc2ccc([N+](=O)[O-])cc2[N+](=O)[O-])cc(OC)c1OC [fragment 33, 2,4-Dinitrophenyl 3-(3,4,5-trimethoxyphenyl)propanoate] | – | – | – | – | – | – | – | – | isoTOP-ABPP reactivity ratio at lysine P07954_K311 ([1]; 50 uM, 231 sol, in vitro): 2.2; isoTOP-ABPP reactivity ratio at lysine P20839_K208 [3]: 1.2; isoTOP-ABPP reactivity ratio at lysine P52815_K87 ([4]; 50 uM, 231 sol, in vitro): 2.1; isoTOP-ABPP reactivity ratio at lysine P60520_K46 ([5]; 50 uM, 231 sol, in vitro): 1.2; isoTOP-ABPP reactivity ratio at lysine P23919_K118 ([6]; 231 sol): 6.6 |
| O=C(Oc1c(F)c(F)c(F)c(F)c1F)C(c1ccccc1)c1ccccc1 [fragment 20, Pentafluorophenyl 2,2-diphenylacetate] | – | – | – | – | – | – | – | – | R value (DMSO/fragment) for probe 1 labeling ([1]; P07954_K311, 50 uM, 231 sol, in vitro): 1.2; R value (DMSO/fragment) for probe 1 labeling ([2]; P07195_K82, 231 sol): 1.2; R value (DMSO/fragment) for probe 1 labeling ([2]; P07195_K244, 231 sol): 1.0; R value (DMSO/fragment) for probe 1 labeling ([4]; P52815_K87, 50 uM, 231 sol, in vitro): 0.9; R value (DMSO/fragment) for probe 1 labeling ([5]; P60520_K46, 50 uM, 231 sol, in vitro): 0.9; R value (DMSO/fragment) for probe 1 labeling ([6]; P23919_K118, 231 sol): 0.9; R value (DMSO/fragment) for probe 1 labeling ([7]; Q8TCA0_K43, 50 uM, 231 sol, in vitro): 0.7 |
| O=C(Oc1ccc([N+](=O)[O-])cc1[N+](=O)[O-])c1ccc2ccccc2n1 [fragment 35, 2,4-Dinitrophenyl quinoline-2-carboxylate] | – | – | – | 0.9 | 0.9 | 0.9 | 0.6 | 1.0 | – |
| O=C(CCc1ccc2c(c1)OCO2)Oc1ccc([N+](=O)[O-])cc1[N+](=O)[O-] [fragment 45, 2,4-Dinitrophenyl 3-(benzo[d][1,3]dioxol-5-yl)propanoate] | – | – | – | – | – | – | – | – | isoTOP-ABPP ratio, lysine P07954_K311 ([1]; 50 uM_231_sol_in vitro): 1.8; isoTOP-ABPP ratio, lysine P20839_K208 ([3]; 50 uM_231_sol_in vitro): 1.5; isoTOP-ABPP ratio, lysine P52815_K87 ([4]; 50 uM_231_sol_in vitro, possible other lysine B4DLN1_K87, P52815_K91): 1.8; isoTOP-ABPP ratio, lysine P60520_K46 ([5]; 50 uM_231_sol_in vitro): 1.0; isoTOP-ABPP ratio, lysine Q8TCA0_K43 ([7]; 50 uM_231_sol_in vitro): 0.8 |
| O=C(Oc1ccc([N+](=O)[O-])cc1[N+](=O)[O-])c1ccc(Oc2ccccc2)cc1 [fragment 39, 2,4-Dinitrophenyl 4-phenoxybenzoate] | 0.9 | 1.0 | – | 1.1 | 0.8 | 0.8 | 20.0 | 0.9 | – |
| O=C(Oc1ccc([N+](=O)[O-])cc1[N+](=O)[O-])C(c1ccccc1)c1ccccc1 [fragment 30, 2,4-Dinitrophenyl 2,2-diphenylacetate] | – | – | – | – | – | – | – | – | isoTOP-ABPP reactivity ratio at lysine P07954_K311 ([1]; 50 uM, 231 sol, in vitro): 5.2; isoTOP-ABPP reactivity ratio at lysine P07195_K82 ([2]; 231 sol): 20.0; isoTOP-ABPP reactivity ratio at lysine P07195_K244 ([2]; 231 sol): 1.2; isoTOP-ABPP reactivity ratio at lysine P20839_K208 [3]: 1.6; isoTOP-ABPP reactivity ratio at lysine Q8TCA0_K43 ([7]; 50 uM, 231 sol, in vitro): 1.5 |
| CC(=O)Oc1ccc([N+](=O)[O-])cc1[N+](=O)[O-] [fragment 43, 2,4-Dinitrophenyl acetate] | – | – | 1.3 | – | – | – | – | 1.2 | – |
